Values quoted from earlier work as cited in patent US20220031840A1, “Method of Treatment” (HaemaLogix Pty Ltd, priority 2018, published 2022).

Tested on: CXCL10
Settings: elotuzumab phase I study; cited from earlier work

elotuzumab: antibody named as additional anti-cancer agent; phase I study cited (Zonder et al. 2012)
Drug-induced change in CXCL10 levels: drug-induced increases
